Like-named read-outs stand apart in the source and are kept apart here. Blank lines part the entries; values can stand above or below the compound they belong to.
How the values were obtained:
[1] = system: drug-resistant malaria; details: in vitro; cited from earlier work
[2] = system: multidrug resistance; details: compared with MS-073; cited from earlier work
[3] = cited from earlier work
[4] = system: multidrug resistance; details: anticancer drug potentiator; cited from earlier work
[5] = cited from earlier work; remark: listed apart in the source
[6] = Determination of Stability at Acid pH (HPLC, 0.01N HCl); type: physicochemical; details: 0.01N HCl (pH 2), 37° C.
Method: Determination of Stability at Acid pH
Test compounds (15 μg) were dissolved in 3 ml of 0.01N HCl (pH 2) and incubated at 37° C. […] The test compounds and their degradation products were monitored by UV absorption at 240 nm. Disappearance of the parent compound was expressed as a percent peak height relative to time zero, from which t1/2 values were determined graphically, as follows.

SMILES: COc1ccc(CCN(C)CCCC(C#N)(c2ccc(OC)c(OC)c2)C(C)C)cc1OC (stereo not shown) [verapamil]
effect in treating drug-resistant malaria [1]: effective in vitro

SMILES: O=C(C(c1ccccc1)c1ccccc1)N1CCN(CC(O)COc2cccc3ncccc23)CC1 (stereo not shown) [MS-209]
effective doses [2]: higher effective doses
oral bioavailability ([3]; in vivo, po): better stability and oral bioavailability

half-life [6]: 0.25 h
SMILES: OC(COc1cccc2ncccc12)CN1CCN(C2c3ccccc3CCc3ccccc32)CC1 (stereo not shown) [MS-073]
oral bioavailability ([3]; oral): poor oral bioavailability
activity in in vitro testing [4]: highly active
stability in solution [5]: instability problems in solution

half-life [6]: > 72 h
SMILES: OC(COc1cccc2ncccc12)CN1CCN(C2c3ccccc3C3C(c4ccccc42)C3(F)F)CC1 (racemic) [(2R,S)-5-{3-[4-(10,11-difluoromethanodibenzosuber-5-yl)piperazine-1-yl]-2-hydroxypropoxy}quinoline]

half-life [6]: 2.5 h
SMILES: OC(COc1cccc2ncccc12)CN1CCN([C@@H]2c3ccccc3[C@H]3C[C@H]3c3ccccc32)CC1 (relative stereo) [(2R,S)-anti-5-{3-[4-(10,11-methanodibenzosuber-5-yl)piperazin-1-yl]-2-hydroxypropoxy}quinoline]

SMILES: OC(COc1cccc2ncccc12)CN1CCN(C2c3ccccc3C3C(Cl)C3c3ccccc32)CC1 [(2R,S)-anti-5-{3-[4-(10,11-chloromethanodibenzosuber-5-yl)piperazine-1-yl]-2-hydroxypropoxy}quinoline]
t1/2 [6]: > 72 h

Reference: US5889007A, “10, 11-methanodibenzosuberane derivatives” (priority 1995, dated 1999)
